{
  "source": "patent EP0195316A1",
  "about": "“Quinolonecarboxylic acid derivatives” (KYORIN PHARMACEUTICAL CO., LTD., priority 1985, dated 1986)",
  "experiment_in_all_cases": "MIC, in vitro antibacterial activity (standard strains)",
  "type_in_all_cases": "cell-based",
  "key": {"S. pyogenes IID 692": {"tested_on": "S. pyogenes IID 692", "details": "Streptococcus pyogenes, IID692; S. pyogenes IID 692, 10^6 cells/ml, Gram +"}, "B. fragilis 8503": {"tested_on": "B. fragilis 8503", "details": "Bacteroides fragilis; B. fragilis 8503, 10^6 cells/ml, Gram -"}, "B. fragilis 25285": {"tested_on": "B. fragilis 25285", "details": "Bacteroides fragilis; B. fragilis 25285, 10^6 cells/ml, Gram -"}, "[1]": {"tested_on": "Yersinia enterocolitica IID 981", "details": "IID981; Yersinia enterocolitica IID 981, 10^6 cells/ml, Gram -"}, "S. epidermidis IID 866": {"tested_on": "S. epidermidis IID 866", "details": "Staphylococcus epidermidis, IID866; S. epidermidis IID 866, 10^6 cells/ml, Gram +"}, "[2]": {"tested_on": "Escherichia coli NIHJ JC-2", "details": "NIHJJC2; Escherichia coli NIHJ JC-2, 10^6 cells/ml, Gram -; read-out: MIC"}, "E. faecalis IID 682": {"tested_on": "E. faecalis IID 682", "details": "Enterococcus faecalis, IID682; E. faecalis IID 682, 10^6 cells/ml, Gram +"}, "[3]": {"tested_on": "Serratia marcescens IID 618", "details": "IID618; Serratia marcescens IID 618, 10^6 cells/ml, Gram -"}, "E. coli ATCC 10536": {"tested_on": "E. coli ATCC 10536", "details": "Escherichia coli, ATCC10536; E. coli ATCC 10536, 10^6 cells/ml, Gram -; read-out: MIC"}, "[4]": {"tested_on": "Bacillus subtilis PCI 219", "details": "PCI219; Bacillus subtilis PCI 219, 10^6 cells/ml, Gram +"}, "Shigella sonnei IID 969": {"tested_on": "Shigella sonnei IID 969", "details": "IID969; Shigella sonnei IID 969, 10^6 cells/ml, Gram -", "protocol": "Minimal inhibitory concentrations (MICs) were determined in accordance with the method recommended by Japan Society of Chemotherapy."}, "[5]": {"tested_on": "Proteus vulgaris IFO 3167", "details": "IFO3167; Proteus vulgaris IFO 3167, 10^6 cells/ml, Gram -; read-out: MIC"}, "F. varium KYA 8501": {"tested_on": "F. varium KYA 8501", "details": "Fusobacterium varium, KYA8501; F. varium KYA 8501, 10^6 cells/ml, Gram -; read-out: MIC"}, "[6]": {"tested_on": "Staphylococcus aureus 209 P", "details": "10^6 cells/ml, Gram +"}, "[7]": {"tested_on": "S. aureus IID 670 (Terajima)", "details": "Staphylococcus aureus, IID670, 10^6 cells/ml, Gram +"}, "K. pneumoniae 1-220S": {"tested_on": "K. pneumoniae 1-220S", "details": "Klebsiella pneumoniae, 1220S; K. pneumoniae 1-220S, 10^6 cells/ml, Gram -; read-out: MIC"}, "[8]": {"tested_on": "Enterobacter cloacae IID 977", "details": "IID977; Enterobacter cloacae IID 977, 10^6 cells/ml, Gram -"}, "[9]": {"tested_on": "Citrobacter freundii IID 976", "details": "IID976; Citrobacter freundii IID 976, 10^6 cells/ml, Gram -; read-out: MIC"}, "[10]": {"tested_on": "Salmonella enteritidis IID 604", "details": "Salmonella enterica; Salmonella enteritidis IID 604, 10^6 cells/ml, Gram -; read-out: MIC"}, "[11]": {"tested_on": "Klebsiella pneumoniae KY(GN)6445", "details": "Klebsiella pneumoniae KY(GN)6445, 10^6 cells/ml, Gram -; read-out: MIC"}, "[12]": {"tested_on": "Bacteroides fragilis GM 7000", "details": "GM7000; Bacteroides fragilis GM 7000, 10^6 cells/ml, Gram -"}, "B. fragilis 0558": {"tested_on": "B. fragilis 0558", "details": "Bacteroides fragilis; B. fragilis 0558, 10^6 cells/ml, Gram -"}, "[13]": {"tested_on": "B. thetaiotaomicron (0661)", "details": "Bacteroides thetaiotaomicron; B. thetaiotaomicron (0661), 10^6 cells/ml, Gram -; read-out: MIC"}, "[14]": {"tested_on": "Clostridium difficile I-E", "details": "Clostridioides difficile, 10^6 cells/ml, Gram +"}, "[15]": {"tested_on": "Streptococcus pyogenes (S-8)", "details": "Streptococcus pyogenes (S-8), 10^6 cells/ml, Gram +; read-out: MIC"}, "P. morganii IID 602": {"tested_on": "P. morganii IID 602", "details": "Morganella morganii, IID602; P. morganii IID 602, 10^6 cells/ml, Gram -"}, "P. mirabilis IID 994": {"tested_on": "P. mirabilis IID 994", "details": "Proteus mirabilis, IID994; P. mirabilis IID 994, 10^6 cells/ml, Gram -; read-out: MIC"}, "[16]": {"tested_on": "Alcaligenes faecalis 0104002", "details": "Alcaligenes faecalis 0104002, 10^6 cells/ml, Gram -; read-out: MIC"}, "P. aeruginosa IFO 12689": {"tested_on": "P. aeruginosa IFO 12689", "details": "Pseudomonas aeruginosa, IFO12689; P. aeruginosa IFO 12689, 10^6 cells/ml, Gram -"}, "S. pneumoniae IID 552": {"tested_on": "S. pneumoniae IID 552", "details": "Streptococcus pneumoniae, IID552; S. pneumoniae IID 552, 10^6 cells/ml, Gram +; read-out: MIC"}, "[17]": {"tested_on": "Acinetobacter anitratus IID 876", "details": "Acinetobacter calcoaceticus, IID876; Acinetobacter anitratus IID 876, 10^6 cells/ml, Gram -"}},
  "data": [
    {"smiles": "CCNCC1CCN(c2c(F)cc3c(=O)c(C(=O)O)cn(CC)c3c2F)C1", "note": "(stereo not shown) [CI-934, 1-Ethyl-7-(3-ethylaminomethyl-1-pyrrolidinyl)-6,8-difluoro-1,4-dihydro-4-oxo-3-quinolinecarboxylic acid]", "values": [
      {"measurement": "MIC", "setting": "S. pyogenes IID 692", "result": 0.39, "unit": "µg/mL"},
      {"measurement": "MIC", "setting": "B. fragilis 8503", "result": 6.25, "unit": "µg/mL"},
      {"measurement": "MIC", "setting": "B. fragilis 25285", "result": 3.13, "unit": "µg/mL"},
      {"measurement": "MIC", "setting": "[1]", "result": 0.39, "unit": "µg/mL"},
      {"measurement": "MIC", "setting": "S. epidermidis IID 866", "result": 0.1, "unit": "µg/mL"},
      {"measurement": "MIC", "setting": "[2]", "result": 0.1, "unit": "µg/mL"},
      {"measurement": "MIC", "setting": "E. faecalis IID 682", "result": 0.39, "unit": "µg/mL"},
      {"measurement": "MIC", "setting": "[3]", "result": 0.39, "unit": "µg/mL"},
      {"measurement": "MIC", "setting": "E. coli ATCC 10536", "result": 0.1, "unit": "µg/mL"},
      {"measurement": "MIC", "setting": "[4]", "result": 0.05, "unit": "µg/mL"},
      {"measurement": "MIC", "setting": "Shigella sonnei IID 969", "result": 0.1, "unit": "µg/mL"},
      {"measurement": "MIC", "setting": "[5]", "result": 0.05, "unit": "µg/mL"},
      {"measurement": "MIC", "setting": "F. varium KYA 8501", "result": 6.25, "unit": "µg/mL"},
      {"measurement": "MIC", "setting": "[6]", "result": 0.1, "unit": "µg/mL"},
      {"measurement": "MIC", "setting": "[7]", "result": 0.1, "unit": "µg/mL"},
      {"measurement": "MIC", "setting": "K. pneumoniae 1-220S", "result": 0.39, "unit": "µg/mL"},
      {"measurement": "MIC", "setting": "[8]", "result": 0.78, "unit": "µg/mL"},
      {"measurement": "MIC", "setting": "[9]", "result": 0.2, "unit": "µg/mL"},
      {"measurement": "MIC", "setting": "[10]", "result": 0.39, "unit": "µg/mL"},
      {"measurement": "MIC", "setting": "[11]", "result": 0.2, "unit": "µg/mL"},
      {"measurement": "MIC", "setting": "[12]", "result": 6.25, "unit": "µg/mL"},
      {"measurement": "MIC", "setting": "B. fragilis 0558", "result": 3.13, "unit": "µg/mL"},
      {"measurement": "MIC", "setting": "[13]", "result": 25, "unit": "µg/mL"},
      {"measurement": "MIC", "setting": "[14]", "result": 3.13, "unit": "µg/mL"},
      {"measurement": "MIC", "setting": "[15]", "result": 0.2, "unit": "µg/mL"},
      {"measurement": "MIC", "setting": "P. morganii IID 602", "result": 0.39, "unit": "µg/mL"},
      {"measurement": "MIC", "setting": "P. mirabilis IID 994", "result": 0.2, "unit": "µg/mL"},
      {"measurement": "MIC", "setting": "[16]", "result": 6.25, "unit": "µg/mL"},
      {"measurement": "MIC", "setting": "P. aeruginosa IFO 12689", "result": 6.25, "unit": "µg/mL"},
      {"measurement": "MIC", "setting": "S. pneumoniae IID 552", "result": 0.39, "unit": "µg/mL"},
      {"measurement": "MIC", "setting": "[17]", "result": 0.39, "unit": "µg/mL"}
    ]}
  ]
}
